# Laboratory results from patent US20220313662A1, “SUCCINATE DEHYDROGENASE INHIBITORS FOR BREAKING DORMANCY” (Valent BioSciences LLC, priority 2021, published 2022).
# Columns and labels:
# Type in all cases: in vivo
# Concord grape vines [1] = assay: Example 1: bud break and shoot weight of potted Concord grape vines in a greenhouse; details: for Shoot Weight / shoot weight, more than control: 41 days after treatment; for time to 50% bud break, faster than control: rates of Table 1: malonate 3,000 and 10,000 ppm, penthiopyrad 1,428 ppm, inpyrfluxam 486 ppm, pydiflumetofen 968 ppm
# Protocol: To assess the ability of SDHIs to promote and synchronize bud break and increase shoot weight, SDHIs were applied to shoots of potted 1 year old Concord grape vines grown in a greenhouse and examined for bud break (initiation of growth). Hydrogen cyanamide, malonate (malonic acid), inpyrfluxam, penthiopyrad and pydiflumetofen were each applied individually to the shoots of five potted concord grape rootstocks that were pruned to 5 nodes. Plants were evaluated for bud break periodically starting at 5 days after treatment. Plants were evaluated for shoot weight at 41 days after treatment.
# Concord grape vines [2] = assay: Example 2: bud break and shoot weight of potted Concord grape vines, single SDHIs and mixtures (OCE/ECE, Abbott method); details: for Shoot Weight: 41 days after treatment
# Protocol: To assess the ability of SDHIs to promote and synchronize bud break and increase shoot weight, SDHIs were applied to shoots of 1 year old potted Concord grape vines grown in a greenhouse and examined for bud break (initiation of growth). Hydrogen cyanamide, malonate (malonic acid), inpyrfluxam, and mixtures of malonate and inpyrfluxam were each applied to the shoots of five potted concord grape rootstocks that were pruned to 5 nodes. Plants were evaluated for bud break periodically starting at 5 days after treatment. Plants were evaluated for shoot weight at 41 days after treatment.
# To determine if the mixtures provided unexpected results, the observed combined efficacy (“OCE”) was divided by the expected combined efficacy (“ECE”) to give an OCE/ECE ratio wherein the expected ECE is calculated by the Abbott method: […]
# wherein ECE is the expected combined efficacy and in which A and B are the efficacy provided by the single active ingredients. If the ratio between the OCE of the mixture and the ECE of the mixture is greater than 1, then greater than expected interactions are present in the mixture. (Gisi, The American Phytopathological Society, 86:11, 1273-1279, 1996).
# Thompson seedless grapes [3] = assay: Example 3: field trial, bud break and shoot growth of Thompson seedless grapes; design: Shoot Growth: unit not given beside the values; details: for Shoot Growth: equals sum of the three length classes
# Thompson seedless grapes [4] = assay: as above
# Protocol: Thompson seedless grapes were grown in the field in Kanoneiland, Northern Cape, South Africa during the 2021 growing season. Hydrogen cyanamide, malonate (malonic acid), and inpyrfluxam were each applied to the shoots of grape plants at 2 or 4 weeks before natural bud break. Plants were evaluated for bud break at 7 and 21 days after 1st bud break.
# [5] = 2% v/v, 4 weeks before natural bud break
# [6] = 2% v/v, applied 4 weeks before natural bud break
# [7] = 486 ppm, applied 2 weeks before natural bud break
# [8] = 486 ppm, applied 4 weeks before natural bud break
# [9] = 486 ppm (Table 4), 2 weeks before natural bud break
# [10] = 486 ppm, 2 weeks before natural bud break
# [11] = 486 ppm, 4 weeks before natural bud break
# [12] = 10,000 ppm, applied 2 weeks before natural bud break
# [13] = 10,000 ppm, applied 4 weeks before natural bud break
# [14] = applied at 10,000 ppm to shoots
# [15] = 10,000 ppm (Table 4), 2 weeks before natural bud break
# [16] = 10,000 ppm, 2 weeks before natural bud break
# [17] = 10,000 ppm, 4 weeks before natural bud break
smiles,measurement,setting,value
"N#CN [Hydrogen cyanamide, hydrogen cyanamide]",Days to 50% BB,Concord grape vines [1]; applied at 2% v/v to shoots,12 days
same,Days to 100% BB,Concord grape vines [1]; applied at 2% v/v to shoots,17 days
same,Shoot Weight,Concord grape vines [1]; applied at 2% v/v,27.4 g
same,effect on the number of days to 50% bud break (in words),"Concord grape vines [1]; rates of Table 1, hydrogen cyanamide 2% v/v",no effect
same,Days to 50% BB,Concord grape vines [2]; applied at 2% v/v to shoots,18 days
same,Days to 100% BB,Concord grape vines [2]; applied at 2% v/v to shoots,16 days
same,Shoot Weight,Concord grape vines [2]; applied at 2% v/v,8.9 g
same,Shoot Growth (%) 1-5 cm,Thompson seedless grapes [3]; [5],21.7%
same,Shoot Growth (%) 5-10 cm,Thompson seedless grapes [3]; [5],16.1%
same,Shoot Growth (%) >10 cm,Thompson seedless grapes [3]; [5],29.3 c %
same,Shoot Growth,Thompson seedless grapes [3]; [5],67.2
same,Bud Break % at 7 days after 1st bud break,Thompson seedless grapes [3]; [6],63.2 b %
same,Bud Break % at 21 days after 1st bud break,Thompson seedless grapes [3]; [6],81.3 bcd %
"CC1CC(C)(C)c2c(F)ccc(NC(=O)c3cn(C)nc3C(F)F)c21 (stereo not shown) [Inpyrfluxam, inpyrfluxam]",Bud Break % at 7 days after 1st bud break,Thompson seedless grapes [4]; [7],29.7 a %
same,Bud Break % at 21 days after 1st bud break,Thompson seedless grapes [4]; [7],100 f %
same,Bud Break % at 21 days after 1st bud break,"Thompson seedless grapes [4]; 486 ppm, applied 2 weeks before natural bud break, listed as inpyrfluxam",statistically significant increase over control
same,Bud Break % at 7 days after 1st bud break,Thompson seedless grapes [4]; [8],36.8 a %
same,"shoot weight, more than control",Concord grape vines [1]; 486 ppm (Table 1),44%
same,Days to 50% BB,Concord grape vines [1]; applied at 486 ppm to shoots,9 days
same,Days to 100% BB,Concord grape vines [1]; applied at 486 ppm to shoots,17 days
same,Shoot Weight,Concord grape vines [1]; applied at 486 ppm,47 g
same,"time to 50% bud break, faster than control",Concord grape vines [1],about 25%
same,"time to 50% bud break, faster than control",Concord grape vines [2]; 486 ppm,about 12%
same,"time to 100% bud break, faster than control",Concord grape vines [2]; 486 ppm,19%
same,"time to 100% bud break, faster than control",Concord grape vines [2]; 972 ppm,38%
same,Days to 50% BB,Concord grape vines [2]; applied at 97.2 ppm to shoots,27 days
same,Days to 100% BB,Concord grape vines [2]; applied at 97.2 ppm to shoots,17 days
same,Shoot Weight,Concord grape vines [2]; applied at 97.2 ppm,9.1 g
same,Days to 50% BB,Concord grape vines [2]; applied at 194.4 ppm to shoots,29 days
same,Days to 100% BB,Concord grape vines [2]; applied at 194.4 ppm to shoots,28 days
same,Shoot Weight,Concord grape vines [2]; applied at 194.4 ppm,5.4 g
same,Days to 50% BB,Concord grape vines [2]; applied at 486 ppm to shoots,22 days
same,Days to 100% BB,Concord grape vines [2]; applied at 486 ppm to shoots,13 days
same,Shoot Weight,Concord grape vines [2]; applied at 486 ppm,7.6 g
same,Days to 50% BB,Concord grape vines [2]; applied at 972 ppm to shoots,27 days
same,Days to 100% BB,Concord grape vines [2]; applied at 972 ppm to shoots,10 days
same,Shoot Weight,Concord grape vines [2]; applied at 972 ppm,6.2 g
same,increase in shoot growth over Dormex,Thompson seedless grapes [3]; [9],15%
same,increase in shoot growth over control,Thompson seedless grapes [3]; [9],50%
same,increase in shoot growth over control,"Thompson seedless grapes [3]; 486 ppm (Table 4), 4 weeks before natural bud break",27%
same,Shoot Growth (%) 1-5 cm,Thompson seedless grapes [3]; [10],27.7%
same,Shoot Growth (%) 5-10 cm,Thompson seedless grapes [3]; [10],21.1%
same,Shoot Growth (%) >10 cm,Thompson seedless grapes [3]; [10],28.8 c %
same,Shoot Growth,Thompson seedless grapes [3]; [10],77.6
same,Shoot Growth (%) 1-5 cm,Thompson seedless grapes [3]; [11],25.9%
same,Shoot Growth (%) 5-10 cm,Thompson seedless grapes [3]; [11],20.3%
same,Shoot Growth (%) >10 cm,Thompson seedless grapes [3]; [11],19.7 b %
same,Shoot Growth,Thompson seedless grapes [3]; [11],65.8
same,Bud Break % at 21 days after 1st bud break,Thompson seedless grapes [3]; [8],90.3 def %
same,Bud Break % at 21 days after 1st bud break,"Thompson seedless grapes [3]; 486 ppm, applied 4 weeks before natural bud break, listed as inpyrfluxam",statistically significant increase over control
"O=C(O)CC(=O)O [Malonate, malonic acid]",Bud Break % at 7 days after 1st bud break,Thompson seedless grapes [4]; [12],33.7 a %
same,Bud Break % at 21 days after 1st bud break,Thompson seedless grapes [4]; [12],statistically significant increase over control
same,Bud Break % at 7 days after 1st bud break,Thompson seedless grapes [4]; [13],29 a %
same,"days to 100% bud break, faster than control","Concord grape vines [1]; 3,000 ppm",10%
same,"shoot weight, more than control","Concord grape vines [1]; 3,000 ppm",28%
same,"days to 100% bud break, faster than control","Concord grape vines [1]; 10,000 ppm",19%
same,"shoot weight, more than control","Concord grape vines [1]; 10,000 ppm",58%
same,Days to 50% BB,"Concord grape vines [1]; applied at 3,000 ppm to shoots",7 days
same,Days to 100% BB,"Concord grape vines [1]; applied at 3,000 ppm to shoots",19 days
same,Shoot Weight,"Concord grape vines [1]; applied at 3,000 ppm",41.75 g
same,Days to 50% BB,Concord grape vines [1]; [14],7 days
same,Days to 100% BB,Concord grape vines [1]; [14],17 days
same,Shoot Weight,"Concord grape vines [1]; applied at 10,000 ppm",51.4 g
same,"time to 50% bud break, faster than control",Concord grape vines [1],about 40%
same,"time to 50% bud break, faster than control","Concord grape vines [2]; 1,000 ppm, 3,000 ppm and 10,000 ppm",about 4%
same,"time to 100% bud break, faster than control","Concord grape vines [2]; 10,000 ppm",25%
same,Days to 50% BB,Concord grape vines [2]; applied at 300 ppm to shoots,25 days
same,Days to 100% BB,Concord grape vines [2]; applied at 300 ppm to shoots,20 days
same,Shoot Weight,Concord grape vines [2]; applied at 300 ppm,8.0 g
same,Days to 50% BB,"Concord grape vines [2]; applied at 1,000 ppm to shoots",24 days
same,Days to 100% BB,"Concord grape vines [2]; applied at 1,000 ppm to shoots",26 days
same,Shoot Weight,"Concord grape vines [2]; applied at 1,000 ppm",8.8 g
same,Days to 50% BB,"Concord grape vines [2]; applied at 3,000 ppm to shoots",24 days
same,Days to 100% BB,"Concord grape vines [2]; applied at 3,000 ppm to shoots",17 days
same,Shoot Weight,"Concord grape vines [2]; applied at 3,000 ppm",8.5 g
same,Days to 50% BB,Concord grape vines [2]; [14],24 days
same,Days to 100% BB,Concord grape vines [2]; [14],12 days
same,Shoot Weight,"Concord grape vines [2]; applied at 10,000 ppm",7.9 g
same,increase in shoot growth over Dormex,Thompson seedless grapes [3]; [15],11%
same,increase in shoot growth over control,Thompson seedless grapes [3]; [15],44%
same,increase in shoot growth over control,"Thompson seedless grapes [3]; 10,000 ppm (Table 4), 4 weeks before natural bud break",20%
same,Shoot Growth (%) 1-5 cm,Thompson seedless grapes [3]; [16],23.3%
same,Shoot Growth (%) 5-10 cm,Thompson seedless grapes [3]; [16],19.1%
same,Shoot Growth (%) >10 cm,Thompson seedless grapes [3]; [16],32 c %
same,Shoot Growth,Thompson seedless grapes [3]; [16],74.5
same,Shoot Growth (%) 1-5 cm,Thompson seedless grapes [3]; [17],27.7%
same,Shoot Growth (%) 5-10 cm,Thompson seedless grapes [3]; [17],17.8%
same,Shoot Growth (%) >10 cm,Thompson seedless grapes [3]; [17],16.6 b %
same,Shoot Growth,Thompson seedless grapes [3]; [17],62
same,Bud Break % at 21 days after 1st bud break,Thompson seedless grapes [3]; [12],98.2 ef %
same,Bud Break % at 21 days after 1st bud break,Thompson seedless grapes [3]; [13],87.5 cde %
"CC(C)CC(C)c1sccc1NC(=O)c1cn(C)nc1C(F)(F)F (stereo not shown) [Penthiopyrad, penthiopyrad]","days to 100% bud break, faster than control","Concord grape vines [1]; 1,428 ppm (Table 1)",38%
same,Days to 50% BB,"Concord grape vines [1]; applied at 1,428 ppm to shoots",7 days
same,Days to 100% BB,"Concord grape vines [1]; applied at 1,428 ppm to shoots",13 days
same,Shoot Weight,"Concord grape vines [1]; applied at 1,428 ppm",29.4 g
same,"time to 50% bud break, faster than control",Concord grape vines [1],about 40%
"CON(C(=O)c1cn(C)nc1C(F)F)C(C)Cc1c(Cl)cc(Cl)cc1Cl (stereo not shown) [Pydiflumetofen, pydiflumetofen]",Days to 50% BB,Concord grape vines [1]; applied at 968 ppm to shoots,9 days
same,Days to 100% BB,Concord grape vines [1]; applied at 968 ppm to shoots,26 days
same,Shoot Weight,Concord grape vines [1]; applied at 968 ppm,24 g
same,"time to 50% bud break, faster than control",Concord grape vines [1],about 25%
